Assay results reported in ChEMBL document CHEMBL2346545, “Quinic acid derivatives from Pimpinella brachycarpa exert anti-neuroinflammatory activity in lipopolysaccharide-induced microglia” (Bioorg Med Chem Lett, 2013).
The source made the active and inactive calls. The calls are words filed in the database; no cut-off is given here.

Tests used:
[1] = Cytotoxicity against mouse BV2 cells assessed as cell viability at 20 uM by MTT assay; format: cell-based, BV-2; details: read-out: Activity
BV-2 [2] = assay: Anti-neuroinflammatory activity in mouse BV2 cells assessed as inhibition of LPS-induced nitric oxide production […] by Griess assay relative to control; format: functional, cell-based
[3] = biological target: T1, Nitric oxide synthase, inducible (Mus musculus) (UniProt P29477); assay: Inhibition of iNOS in LPS-treated mouse BV2 cells assessed as decrease in nitrite level at 1 to 5 uM after 12 hrs by Griess assay; format: cell-based; details: BV-2
T1 sequence (whole entry): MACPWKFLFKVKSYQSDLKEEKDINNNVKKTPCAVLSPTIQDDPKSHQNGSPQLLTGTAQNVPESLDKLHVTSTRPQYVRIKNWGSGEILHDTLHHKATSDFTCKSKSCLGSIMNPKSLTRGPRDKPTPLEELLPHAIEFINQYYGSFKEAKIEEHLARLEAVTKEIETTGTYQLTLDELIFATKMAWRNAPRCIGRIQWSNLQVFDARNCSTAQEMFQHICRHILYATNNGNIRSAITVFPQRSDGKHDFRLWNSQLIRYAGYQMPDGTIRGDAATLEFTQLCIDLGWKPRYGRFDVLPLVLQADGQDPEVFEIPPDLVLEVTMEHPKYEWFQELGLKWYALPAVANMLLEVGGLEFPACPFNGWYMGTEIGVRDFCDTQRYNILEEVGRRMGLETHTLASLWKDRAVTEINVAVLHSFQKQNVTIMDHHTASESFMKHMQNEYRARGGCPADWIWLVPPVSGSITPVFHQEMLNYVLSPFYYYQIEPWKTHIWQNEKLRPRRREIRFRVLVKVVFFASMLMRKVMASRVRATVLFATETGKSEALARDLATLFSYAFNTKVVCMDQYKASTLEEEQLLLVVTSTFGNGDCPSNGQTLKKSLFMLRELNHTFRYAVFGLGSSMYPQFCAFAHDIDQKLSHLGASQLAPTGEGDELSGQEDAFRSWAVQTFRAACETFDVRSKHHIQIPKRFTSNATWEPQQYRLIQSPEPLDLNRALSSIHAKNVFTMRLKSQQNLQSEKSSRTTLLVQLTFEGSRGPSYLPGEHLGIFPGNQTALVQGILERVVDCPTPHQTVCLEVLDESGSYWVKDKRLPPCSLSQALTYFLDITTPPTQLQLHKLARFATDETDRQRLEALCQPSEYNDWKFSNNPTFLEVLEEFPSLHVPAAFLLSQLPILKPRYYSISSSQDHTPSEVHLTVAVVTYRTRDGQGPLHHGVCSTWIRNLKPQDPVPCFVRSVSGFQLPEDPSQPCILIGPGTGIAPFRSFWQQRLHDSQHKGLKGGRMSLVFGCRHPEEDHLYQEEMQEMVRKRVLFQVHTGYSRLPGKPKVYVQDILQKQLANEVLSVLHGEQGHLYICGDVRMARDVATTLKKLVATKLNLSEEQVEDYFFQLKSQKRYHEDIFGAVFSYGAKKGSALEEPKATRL

BV-2 [4] = assay: Downregulation of iNOS expression in LPS-treated mouse BV2 cells at 1 to 10 uM incubated for 30 mins prior to LPS challenge measured after 6 hrs by Western blot analysis; format: functional, cell-based
[5] = Reduction of SNP-induced nitrite accumulation at 1 to 10 uM after 180 mins by Griess assay
RAW264.7 [6] = assay: Anti-neuroinflammatory activity in mouse RAW264.7 cells assessed as inhibition of LPS-induced nitric oxide production; format: functional, cell-based
RAW264.7 [7] = assay: Cytotoxicity against mouse RAW264.7 cells assessed as decrease in cell viability at 20 uM; format: cell-based; details: raw264.7, 20 µM
[8] = biological target: T1, Nitric oxide synthase, inducible (Mus musculus); assay: Inhibition of iNOS in LPS-treated mouse BV2 cells assessed as decrease in nitrite level at 1 to 10 uM after 12 hrs by Griess assay; format: cell-based; details: BV-2
BV-2 [9] = assay: Downregulation of iNOS expression in LPS-treated mouse BV2 cells at 10 uM incubated for 30 mins prior to LPS challenge measured after 6 hrs by Western blot analysis; format: functional, cell-based
[10] = Reduction of SNP-induced nitrite accumulation at 5 to 10 uM after 180 mins by Griess assay

IC50 (BV-2 [2])	Compound	viability at 20 µM [1]	further results
24.6 µM	COC(=O)[C@]1(O)C[C@@H](O)[C@@H](OC(=O)/C=C/c2ccc(O)c(O)c2)[C@H](OC(=O)/C=C/c2ccc(O)c(O)c2)C1	92.2%	–
9.04 µM	COC(=O)[C@]1(O)C[C@@H](OC(=O)/C=C/c2ccc(O)c(O)c2)[C@@H](O)[C@H](OC(=O)/C=C/c2ccc(O)c(O)c2)C1	91.1%	inhibition [3]: Active; Activity (BV-2 [4]): inactive; Activity [5]: Active; IC50 (RAW264.7 [6]): 42.9 µM; Activity (RAW264.7 [7]): Non-toxic
20.2 µM	COC(=O)[C@@]1(O)C[C@@H](O)[C@H](OC(=O)/C=C/c2ccc(O)c(O)c2)[C@H](OC(=O)/C=C/c2ccc(O)c(O)c2)C1 [3,4-O-TRANS-CAFFEOYLQUINIC ACID METHYL ESTER]	96.8%	–
52.8 µM	O=C(/C=C\c1ccc(O)cc1)O[C@@H]1C[C@](OC(=O)/C=C\c2ccc(O)cc2)(C(=O)O)C[C@@H](O)[C@H]1O	96%	–
16.6 µM	COC(=O)[C@]1(O)C[C@@H](O)[C@@H](OC(=O)/C=C/c2ccc(O)c(O)c2)[C@H](O)C1	92.6%	–
82 µM	COC(=O)[C@]1(O)C[C@@H](O)[C@@H](O)[C@H](OC(=O)/C=C/c2ccc(O)cc2)C1	109%	–
17 µM	COC(=O)[C@]1(O)C[C@@H](O)[C@@H](O)[C@H](OC(=O)/C=C\c2ccc(O)c(O)c2)C1	90.6%	–
12.5 µM	CO[C@@H](CC(=O)O[C@@]1(C(=O)O)C[C@@H](O)[C@@H](O)[C@H](OC(=O)/C=C/c2ccc(O)c(O)c2)C1)c1ccc(O)c(O)c1	90.9%	–
86.4 µM	COC(=O)[C@]1(O)C[C@@H](O)[C@@H](O)[C@H](OC(=O)/C=C\c2ccc(O)cc2)C1	109%	–
22.6 µM	O=C(/C=C/c1ccc(O)c(O)c1)O[C@@H]1C[C@](OC(=O)/C=C/c2ccc(O)c(O)c2)(C(=O)O)C[C@@H](O)[C@H]1O [1,5-O-TRANS-DICAFFEOYLQUINIC ACID]	93.7%	–
23.5 µM	O=C(/C=C/c1ccc(O)cc1)O[C@@H]1C[C@](OC(=O)/C=C/c2ccc(O)c(O)c2)(C(=O)O)C[C@@H](O)[C@H]1O	94.3%	–
–	CNC(=N)NCCC[C@H](N)C(=O)O [TILARGININE]	103%	–
12.1 µM	COC(=O)[C@]1(O)C[C@@H](O)[C@@H](O)[C@H](OC(=O)/C=C/c2ccc(O)c(O)c2)C1 [CHLOROGENIC ACID METHYL ESTER]	95.3%	–
45 µM	COC(=O)[C@]1(O)C[C@@H](O)[C@@H](OC(=O)/C=C/c2ccc(O)cc2)[C@H](O)C1	108%	–
59.8 µM	O=C(/C=C\c1ccc(O)cc1)O[C@@H]1C[C@](OC(=O)/C=C/c2ccc(O)cc2)(C(=O)O)C[C@@H](O)[C@H]1O	98.1%	–
4.66 µM	CO[C@@H](CC(=O)O[C@@H]1C[C@](OC(=O)/C=C/c2ccc(O)c(O)c2)(C(=O)O)C[C@@H](O)[C@H]1O)c1ccc(O)c(O)c1	93.2%	inhibition [8]: Active; Activity (BV-2 [9]): Active; Activity [10]: Active; IC50 (RAW264.7 [6]): 175 µM; Activity (RAW264.7 [7]): Non-toxic
